Measurements from patent publication US20130317046A1, “USE OF A DPP-4 INHIBITOR IN AUTOIMMUNE DIABETES, PARTICULARLY LADA” (BOEHRINGER INGELHEIM INTERNATIONAL GMBH, priority 2012, published 2013).
Marks after values point to notes of the source that are not given here.

Experiments:
[1] = 2 h postprandial blood glucose excursions in patients with type 2 diabetes; format: in vivo, human; conditions: Day 1, doses ≧2.5 mg
[2] = system: β-cell function; experiment: Fasting C-peptide (β-cell function) in GAD65+ LADA patients, two year double-blind randomized study linagliptin versus glimepiride on metformin; format: in vivo, human; parameters: Follow-up C-peptide / ΔC-peptide / Baseline C-peptide: unit not given here; conditions: for Follow-up C-peptide / ΔC-peptide / Baseline C-peptide: fasting, GAD+ patients; for Follow-up C-peptide: 52 weeks; for Follow-up C-peptide / Baseline C-peptide: lina 5 mg/d, glim 1-4 mg/d, on metformin
Protocol: (§1) β-Cell function in latent autoimmune diabetes in adults (LADA) treated with linagliptin versus glimepiride: exploratory results from a two year double-blind, randomized, controlled study:
(§2) It is compared the impact of treatment with the DPP4-inhibitor linagliptin (lina) 5 mg/d and the sulphonylurea glimepiride (glim) 1-4 mg/d on β-cell function in patients retrospectively identified with LADA who had insufficient glycaemic control despite metformin therapy in a two year study.
(§3) Patients were classified as LADA if one or more of the autoantibodies assessed (GAD65, ICA, IA-2A, IAA) were present at baseline or any on-treatment visit. GAD was assessed using RIA methodology (cut-off 0.05 [sensitivity 82%/specificity 98.89% in the Diabetes Autoantibody Standardization Program 2010]).
(§4) The study cohort comprised 1519 patients (16 countries), with assumed common T2D. The prevalence of LADA was 7.8% (n=118). GAD65 was the most prevalent autoantibody (6.5%) whereas ICA (0.3%), IA-2A (1.2%) and IAA (0.2%) were rare. Proportion of patients with 2 positive antibodies was 0.4%. Baseline characteristics in GAD65+LADA patients treated with lina (n=65) or glim (n=53) were fairly well balanced (respective age 59/63 yrs, BMI 30.3/31.7 kg/m2 and diabetes duration >5 years 62%/59%).
(§5) HbA1c reductions were of similar magnitude in the groups.

[3] = HbA1c in GAD65+ LADA patients, two year double-blind randomized study linagliptin versus glimepiride on metformin; format: in vivo, human; conditions: GAD+ patients
Protocol: as §1, §2, §3, §4, §5

[4] = Safety and tolerability in people with type 2 diabetes
[5] = Pharmacokinetics of BI 1356 after multiple oral doses once daily for 12 days in patients with type 2 diabetes; conditions: for feT,ss: steady state (Day 12); for feT,ss / fe0-24: gMean; for fe0-24: fraction excreted in urine
[6] = change from baseline at 28 weeks
[7] = change from baseline at 52 weeks
[8] = change from baseline at 104 weeks

| SMILES | Follow-up C-peptide [2] | ΔC-peptide [2, 6] | ΔC-peptide [2, 7] | ΔC-peptide [2, 8] | Baseline C-peptide ([2]; subset followed to 28 weeks) | Baseline C-peptide ([2]; subset followed to 52 weeks) | Baseline C-peptide ([2]; subset followed to 104 weeks) | ΔHbA1c [3, 6] | ΔHbA1c [3, 7] | ΔHbA1c [3, 8] | Baseline HbA1c ([3]; subset followed to 28 weeks) | Baseline HbA1c ([3]; subset followed to 52 weeks) | Baseline HbA1c ([3]; subset followed to 104 weeks) | further results |
| --- | --- | --- | --- | --- | --- | --- | --- | --- | --- | --- | --- | --- | --- | --- |
| CC#CCn1c(N2CCC[C@@H](N)C2)nc2c1c(=O)n(Cc1nc(C)c3ccccc3n1)c(=O)n2C [BI 1356, 1-[(4-methyl-quinazolin-2-yl)methyl]-3-methyl-7-(2-butyn-1-yl)-8-(3-(R)-amino-piperidin-1-yl)-xanthine] | 978 | +96***## | +143***## | +202*** | 821 | 835 | 944 | −0.25% | −0.49% | −0.41% | 7.62% | 7.50% | 7.40% | decrease in 2 h postprandial blood glucose excursions [1]: 80%; preservation of C-peptide ([2]; GAD65+ patients, over a 2 yr trajectory, versus glim): preserved C-peptide significantly better than those treated with glim; safety and tolerability [4]: placebo-like safety and tolerability; feT,ss ([5]; 1 mg oral once daily): 3.34%; fe0-24 ([5]; 2.5 mg oral once daily): 0.139%; feT,ss ([5]; 2.5 mg oral once daily): 3.06%; fe0-24 ([5]; 5 mg oral once daily): 0.453%; feT,ss ([5]; 5 mg oral once daily): 6.27%; fe0-24 ([5]; 10 mg oral once daily): 0.919%; feT,ss ([5]; 10 mg oral once daily): 3.22%; mean accumulation ratio RA,AUC ([5]; doses above 1 mg): ≤ 1.4; form and route of excretion ([5]; human, in vivo): primarily excreted unchanged via the bile; excreted via the kidney ([5]; therapeutic oral dose levels): < 7 % of the administered oral dose; main route of excretion ([5]; therapeutic oral dose levels): mainly excreted via the liver |
| CCC1=C(C)CN(C(=O)NCCc2ccc(S(=O)(=O)NC(=O)N[C@H]3CC[C@H](C)CC3)cc2)C1=O [Glim, glimepiride, reference compound] | 1246 | −105 | −179 | −29 | 1326 | 1425 | 1374 | −0.75% | −0.52% | −0.49% | 7.75% | 7.46% | 7.40% |  |
